Literature values, collected in patent publication US20040009220A1, “Rate-controlled beta blockers and process for forming same” (priority 2001, published 2004).

What was measured:
[1] = in man

plasma half life [1] | solubility in water | Structure (SMILES)
three to seven |  | COCCc1ccc(OCC(O)CNC(C)C)cc1 (centres unmarked) [Metroprolol]
 | freely soluble in water | COCCc1ccc(OCC(O)CNC(C)C)cc1 (centres unmarked) [metoprolol succinate]
